Experimental findings from patent EP3502093A1, “ZWITTERIONIC PILLARARENE DERIVATIVE” (Freie Universität Berlin, priority 2017, dated 2019) are described below.

The subject of test [1] is E. coli biofilm. Briefly: treatment of pre-fabricated biofilms of different stages for 24 h, LIVE/DEAD staining. The conditions noted are these: 200 nM, treated 24 h. Format: cell-based. How it is done:
As depicted in Figure 2, E. coli biofilm in different stages - namely, in colony formation stage (1 day growth ["cultivated 1 + 1 days"]) and in maturation stages (3 days growth ["cultivated 1 + 3 days"] or 5 days growth ["cultivated 1 + 5 days"], respectively), were pre-fabricated according to literature^16 and then treated with a dose of 200 nM ZW-PA nanoparticles, 200 nM ampicillin or PBS for another 24 h. Afterwards, the resulting biofilms on the 2nd day, the 4th day and the 6th day were observed. A LIVE/DEAD staining of the E. coli cells was applied. By this staining, living cells are stained green, while dead cells are stained red. […] Specifically, the biofilm height increased from 8 µm on the 2nd day (1st + 1 day) to 25 µm on the 6th day (1st + 5 days). Only green (living) cells could be observed. The scale bars in all plots of Figure 2 represent 50 µm.

The test system of test [2] is E. coli biofilm. Description: prolonged incubation (24 h, 72 h, 120 h) of 1-day pre-fabricated biofilm, regrowth and resistance. The class given is cell-based. The conditions noted are these: 1-day biofilm, 200 nM. How it is done: Biofilms are considered to be highly resistant to antibacterial agents due to restricted penetration of antibacterial agents into biofilms, slow growth owing to nutrient limitation, expression of genes involved in the general stress response, and emergence of a biofilm-specific phenotype. Thus, it is important to investigate the emergence of resistances against a new antibacterial agent used for combating biofilms. Therefore, ZW-PA nanoparticles in a concentration of 200 nM were applied to a biofilm pre-fabricated for 1 day. Subsequently, the biofilm was incubated with ZW-PA nanoparticles and investigated after 1 day incubation (24 h, cultivated 1 + 1 days), after 3 days incubation (72 h, cultivated 1 + 3 days), and after 5 days incubation (120 h, cultivated 1 + 5 days). PBS and 200 nM ampicillin were used as controls. The scale bars in all plots of Figure 3 represent 50 µm.

The mark [3] stands for this setting: biofilm grown 1 day (1 + 1 days).
Setting [4] is: biofilm grown 5 days (1 + 5 days).

As to `CC1(C)S[C@@H]2[C@H](NC(=O)[C@H](N)c3ccccc3)C(=O)N2[C@H]1C(=O)O` [ampicillin], the “LIVE/DEAD staining, killing of cells in biofilm” value with E. coli biofilm [1] (setting [3]) is recorded as “less than the half of the cells, were stained red”; in the test on E. coli biofilm [1] (biofilm grown 3 days (1 + 3 days)) it was “most of the cells were still alive”; in the test on E. coli biofilm [1] (setting [4]), “effective only against the cells on the surface layer of the biofilm”; in the test on E. coli biofilm [2] (24 h incubation (1 + 1 days)) it was “a part of the cells could be killed”. In addition, the biofilm height is 5 µm with E. coli biofilm [1] (setting [3]) and 24 µm with E. coli biofilm [1] (setting [4]). Moreover, the “LIVE/DEAD staining, living versus dead cells” value in the test with E. coli biofilm [2] (72 h incubation (1 + 3 days)) is “more green than red cells”; with E. coli biofilm [2] (120 h incubation (1 + 5 days)) it was “more red than green cells”. For the same molecule, in the test on E. coli biofilm [2] (further incubated to 72 h and 120 h), the “cell density and reformation of the biofilm on further incubation” value is “the biofilm could gradually reform”.
